According to the supplement of paper PMC10307832:

Tests used:
Test in all cases: relative viability (nuclei count vs DMSO), 5 days (fraction); higher = more cells survive
CX-5461 + Bortezomib = compound: Cc1cnc(CNC(=O)c2c(=O)c3ccc(N4CCCN(C)CC4)nc3n3c2sc2ccccc23)cn1 [CX-5461] + CC(C)C[C@H](NC(=O)[C@H](Cc1ccccc1)NC(=O)c1cnccn1)B(O)O [Bortezomib] (partner 0.002 µM)
In short: (§1)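 Values are medians from duplicate plates. Each reflects relative viability, defined as the nuclei count of treated wells over that of vehicle wells. Lung cancer cell lines in 1536-well plates were pin-tool dosed one day after seeding with one drug alone or with a fixed anchor-drug dose plus five library-drug doses (not always all listed) in √10 steps, then fixed, stained and imaged at 4× after 5 days.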

CX-5461 + Linsitinib = compound: Cc1cnc(CNC(=O)c2c(=O)c3ccc(N4CCCN(C)CC4)nc3n3c2sc2ccccc23)cn1 [CX-5461] + C[C@]1(O)C[C@@H](c2nc(-c3ccc4ccc(-c5ccccc5)nc4c3)c3c(N)nccn32)C1 [Linsitinib] (partner 1 µM)
In short: as §1

IMD-0354 + Palbociclib = compound: O=C(Nc1cc(C(F)(F)F)cc(C(F)(F)F)c1)c1cc(Cl)ccc1O [IMD-0354] + CC(=O)c1c(C)c2cnc(Nc3ccc(N4CCNCC4)cn3)nc2n(C2CCCC2)c1=O [Palbociclib] (partner 0.5 µM)
In short: as §1

IMD-0354 + Dasatinib = compound: O=C(Nc1cc(C(F)(F)F)cc(C(F)(F)F)c1)c1cc(Cl)ccc1O [IMD-0354] + Cc1nc(Nc2ncc(C(=O)Nc3c(C)cccc3Cl)s2)cc(N2CCN(CCO)CC2)n1 [Dasatinib] (partner 0.075 µM)
In short: as §1

Cell Line	relative viability (CX-5461 + Bortezomib; first compound 0.01 µM)	relative viability (CX-5461 + Bortezomib; first compound 0.03162 µM)	relative viability (CX-5461 + Bortezomib; first compound 0.1 µM)	relative viability (CX-5461 + Bortezomib; first compound 0.3162 µM)	relative viability (CX-5461 + Bortezomib; first compound 1 µM)	relative viability (CX-5461 + Linsitinib; first compound 0.01 µM)	relative viability (CX-5461 + Linsitinib; first compound 0.03162 µM)	relative viability (CX-5461 + Linsitinib; first compound 0.1 µM)	relative viability (CX-5461 + Linsitinib; first compound 0.3162 µM)	relative viability (CX-5461 + Linsitinib; first compound 1 µM)	relative viability (IMD-0354 + Palbociclib; first compound 0.04 µM)	relative viability (IMD-0354 + Palbociclib; first compound 0.1265 µM)	relative viability (IMD-0354 + Palbociclib; first compound 0.4 µM)	relative viability (IMD-0354 + Palbociclib; first compound 1.265 µM)	relative viability (IMD-0354 + Palbociclib; first compound 4 µM)	relative viability (IMD-0354 + Dasatinib; first compound 0.04 µM)	relative viability (IMD-0354 + Dasatinib; first compound 0.1265 µM)	relative viability (IMD-0354 + Dasatinib; first compound 0.4 µM)	relative viability (IMD-0354 + Dasatinib; first compound 1.265 µM)	relative viability (IMD-0354 + Dasatinib; first compound 4 µM)
201T	1.16	1.15	1.08	1.14	1.05	1.05	0.995	1.03	1.02	0.993	0.35	0.387	0.294	0.375	0.28	0.625	0.586	0.479	0.283	0.346
A549	–	–	–	–	–	0.644	0.712	0.57	0.122	0.544	–	–	–	–	–	–	–	–	–	–
A-427	0.999	1.04	0.98	–	0.912	1.19	1.11	1.15	–	1.08	0.516	0.525	0.441	0.157	0.158	0.813	0.772	0.346	0.112	0.137
ABC-1	0.297	0.282	–	0.206	0.313	1.11	0.84	–	0.817	0.494	0.638	0.778	0.69	–	0.432	0.67	0.673	0.279	0.165	0.228
BEN	1.07	0.665	1.02	0.672	0.597	1.01	0.967	1.01	0.827	0.727	0.432	0.428	0.359	0.411	0.318	0.319	0.315	0.246	0.227	0.165
CAL-12T	0.941	0.92	0.909	1.17	0.831	0.874	1.05	0.843	0.868	0.622	0.633	0.423	0.325	0.189	0.164	0.356	0.387	0.255	0.0944	0.146
COR-L23	0.831	1.05	0.813	1.04	0.474	0.908	1.05	0.651	0.969	0.472	0.303	0.278	0.185	0.122	0.12	0.426	0.475	0.37	0.0763	0.201
COR-L 105	0.841	0.701	0.492	0.385	0.416	1.05	0.93	1.08	0.852	0.59	0.404	0.395	0.394	0.33	0.284	0.401	0.316	0.283	0.246	0.197
Calu-6	1.16	1.06	0.907	1.12	0.382	1.02	0.952	0.986	0.827	0.51	–	–	–	–	–	–	–	–	–	–
ChaGo-K-1	1.14	0.968	0.647	0.414	0.449	–	–	–	–	–	0.844	0.917	0.55	0.473	0.236	0.635	0.59	0.434	0.2	0.237
EBC-1	0.591	0.619	0.466	0.49	0.423	0.988	1.04	1.04	0.859	0.753	–	–	–	–	–	–	–	–	–	–
EKVX	1.29	1.04	1.01	–	0.838	1.19	1.02	0.962	–	0.962	0.383	0.343	–	0.29	0.215	0.32	0.505	0.445	0.409	0.272
EMC-BAC-2	1.14	1.13	1.04	1.06	0.746	0.843	0.914	0.828	0.824	0.815	0.534	0.522	0.423	0.35	0.34	0.313	0.313	0.235	0.19	0.218
EPLC-272H	0.93	0.975	0.765	–	0.814	1.3	1.27	1.09	–	1.06	0.267	0.343	0.349	0.356	0.131	0.511	0.279	0.353	0.121	0.0731
H3255	0.878	0.791	0.775	0.464	0.789	1.04	1.01	0.935	0.735	0.988	0.33	0.331	0.306	0.275	0.274	0.303	0.348	0.264	0.235	0.282
HARA	1.01	1.28	1.13	1.06	0.809	0.953	1.04	0.98	0.772	0.966	0.237	0.202	0.314	0.195	0.204	0.324	0.253	0.185	0.103	0.0678
HCC-15	1.04	1.16	1.02	1.03	0.731	0.906	0.904	0.933	0.909	0.834	0.733	0.664	0.627	0.289	0.1	0.613	0.571	0.375	0.094	0.164
HCC-44	0.898	0.973	0.844	0.838	0.807	0.734	0.681	0.685	0.676	0.644	1.06	0.964	0.922	0.661	0.452	–	–	–	–	–
HCC-78	0.434	0.485	0.548	0.498	0.428	0.566	0.548	0.502	0.437	0.398	0.538	0.506	0.322	0.383	0.424	0.429	0.466	0.294	0.275	0.232
